Experimental data from patent US20160130278A1 (TAISHO PHARMACEUTICAL CO., LTD, priority 2013, published 2016).

biological target: T1, human type 1 glycine transporter (GlyT1) (Homo sapiens, UniProt P48067); assay: Glycine uptake inhibition experiment ([3H]glycine uptake); format: cell-based; settings: GlyT1
T1 construct: T98G cells (glioma cells) expressing human type 1 glycine transporter (GlyT1) were used
T1 sequence (P48067 1-706): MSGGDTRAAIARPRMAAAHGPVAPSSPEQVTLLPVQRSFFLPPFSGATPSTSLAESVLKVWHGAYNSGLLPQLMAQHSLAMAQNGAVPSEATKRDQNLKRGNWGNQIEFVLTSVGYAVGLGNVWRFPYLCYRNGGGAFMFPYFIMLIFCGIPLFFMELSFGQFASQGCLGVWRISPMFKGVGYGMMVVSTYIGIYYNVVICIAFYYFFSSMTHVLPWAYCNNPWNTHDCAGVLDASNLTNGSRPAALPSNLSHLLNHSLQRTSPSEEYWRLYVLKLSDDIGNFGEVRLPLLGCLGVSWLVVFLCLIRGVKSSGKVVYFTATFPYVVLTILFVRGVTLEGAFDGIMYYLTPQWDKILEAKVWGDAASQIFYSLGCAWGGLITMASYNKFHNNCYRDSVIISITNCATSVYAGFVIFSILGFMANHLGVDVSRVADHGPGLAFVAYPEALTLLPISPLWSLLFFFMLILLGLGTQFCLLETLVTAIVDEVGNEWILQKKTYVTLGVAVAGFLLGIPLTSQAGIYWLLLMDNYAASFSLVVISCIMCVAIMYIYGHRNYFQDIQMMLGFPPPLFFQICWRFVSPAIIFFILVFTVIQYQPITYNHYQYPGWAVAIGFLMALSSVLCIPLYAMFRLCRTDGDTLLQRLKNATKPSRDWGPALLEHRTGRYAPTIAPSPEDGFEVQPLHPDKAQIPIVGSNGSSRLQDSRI
Experimental: Glycine Uptake Inhibition Experiment
A glycine uptake experiment was conducted in accordance with the method published in Neuron, 8, 927-935, 1992. In the experiment, T98G cells (glioma cells) expressing human type 1 glycine transporter (GlyT1) were used. The T98G cells were seeded in a 96-well plate at 2.0×10^4 cells/well and cultured overnight in a CO2 incubator. The test substance was dissolved in a 100% DMSO solution and then dissolved in a 10 mM HEPES buffer solution (pH 7.4) containing 150 mM sodium chloride, 1 mM calcium chloride, 5 mM potassium chloride, 1 mM magnesium chloride, 10 mM glucose and 0.2% bovine serum albumin. After removing the cell culture medium, the test substance was subjected to a 10-min pretreatment. Subsequently, the test substance and [^3H] glycine (final concentration: 250 nM) were added to the cells and reaction was performed at room temperature for 15 minutes. After the end of the reaction, the extracellular fluid was aspirated with a manifold to remove excess labeled glycine present outside the cells, and then the cells were lysed with a 0.5 M aqueous sodium hydroxide solution. The glycine content in the cells was determined by measuring the radioactivity in the cell lysate with a liquid scintillation counter. Glycine uptake in the presence of 10 μM ALX5407 was defined as non-specific uptake, and the value calculated by subtracting the amount of the non-specific uptake from the total uptake in the absence of 10 μM ALX5407 was defined as specific uptake. In addition, glycine uptake inhibitory activity (IC50 value) was calculated from an inhibition curve at the concentrations of each test substance ranging from 10^−9 to 10^−5 M. It should be noted that ALX5407 is an HCl salt of N-[(3R)-3-([1,1′-biphenyl]-4-yloxy)-3-(4-fluorophenyl)propyl]-N-methylglycine.

| IC50 [nM] | Compound |
| --- | --- |
| 640 | O=C(NC(c1ccc(Cl)nc1)C1(O)CCC(F)(F)CC1)c1nccc(C(F)(F)F)c1Cl (single isomer, unassigned) [Compound 277, 3-chloro-N-[(6-chloropyridin-3-yl)(4,4-difluoro-1-hydroxycyclohexyl)methyl]-4-(trifluoromethyl)pyridine-2-carboxamide] |
| 28 | O=C(NC(c1cccc(Cl)c1)C1(O)CCCCC1)c1nccc(C(F)(F)F)c1Cl (single isomer, unassigned) [Compound 229, 3-chloro-N-[(3-chlorophenyl)(1-hydroxycyclohexyl)methyl]-4-(trifluoromethyl)pyridine-2-carboxamide] |
| 740 | O=C(NC(c1cc(Cl)ccc1Cl)C1(O)CCC(F)(F)CC1)c1nccc(C(F)(F)F)c1Cl (single isomer, unassigned) [Compound 235, 3-chloro-N-[(2,5-dichlorophenyl)(4,4-difluoro-1-hydroxycyclohexyl)methyl]-4-(trifluoromethyl)pyridine-2-carboxamide] |
| 77 | O=C(NC(c1cccc(Cl)n1)C1(O)CCC(F)(F)CC1)c1nccc(C(F)(F)F)c1Cl (single isomer, unassigned) [Compound 311, 3-chloro-N-[(6-chloropyridin-2-yl)(4,4-difluoro-1-hydroxycyclohexyl)methyl]-4-(trifluoromethyl)pyridine-2-carboxamide] |
| 590 | O=C(NC(c1cccnc1Cl)[C@]1(O)CC[C@@H](F)CC1)c1ccnc(C(F)(F)F)c1Cl (single isomer, unassigned) [Compound 321, 3-chloro-N-[(2-chloropyridin-3-yl)(cis-4-fluoro-1-hydroxycyclohexyl)methyl]-2-(trifluoromethyl)pyridine-4-carboxamide] |
| 13 | CCn1cc(-c2cccc(C(NC(=O)c3nccc(C(F)(F)F)c3Cl)C3(O)CCCC3)c2)cn1 (single isomer, unassigned) [Compound 14, 3-chloro-N-{[3-(1-ethyl-1H-pyraozl-4-yl)phenyl](1-hydroxycyclopentyl)methyl}-4-(trifluoromethyl)pyridine-2-carboxamide] |
| 370 | COc1cccc(C(NC(=O)c2nccc(C(F)(F)F)c2Cl)C2(O)CCCC2)c1 (stereo not drawn) [Compound 51, 3-chloro-N-[(1-hydroxycyclopentyl)(3-methoxyphenyl)methyl]-4-(trifluoromethyl)pyridine-2-carboxamide] |
| 610 | Cc1cccc(Cl)c1C(=O)NC(c1cccc(F)c1Cl)[C@]1(O)CC[C@@H](F)CC1 (single isomer, unassigned) [Compound 299, 2-chloro-N-[(2-chloro-3-fluorophenyl)(cis4-fluoro-1-hydroxycyclohexyl)methyl]-6-methylbenzamide] |
| 14 | O=C(NC(c1cccc(-c2cn[nH]c2)c1)C1(O)CCCC1)c1nccc(C(F)(F)F)c1Cl (stereo not drawn) [Compound 17, 3-chloro-N-{(1-hydroxycyclopentyl)[3-(1H-pyrazol-4-yl)phenyl]methyl}-4-(trifluoromethyl)pyridine-2-carboxamide] |
| 100 | CS(=O)(=O)c1cc(C(F)(F)F)ccc1C(=O)NC(c1cccc(F)c1Cl)[C@]1(O)CC[C@@H](F)CC1 (single isomer, unassigned) [Compound 373, N-[(2-chloro-3-fluorophenyl)(cis-4-fluoro-1-hydroxycyclohexyl)methyl]-2-(methylsulfonyl)-4-(trifluoromethyl)benzamide] |
| 1300 | O=C(NC(c1cccc(F)c1Cl)[C@]1(O)CC[C@@H](F)CC1)c1ccc(C(F)(F)F)nc1-n1ccnn1 (single isomer, unassigned) [Compound 394, N-[(2-chloro-3-fluorophenyl)(cis-4-fluoro-1-hydroxycyclohexyl)methyl]-2-(1H-1,2,3-triazol-1-yl)-6-(trifluoromethyl)pyridine-3-carboxamide] |
| 110 | O=C(NC(c1cccc(-c2cn[nH]c2)c1)C1(O)CCCC1)c1cccc(C(F)(F)F)c1Cl (stereo not drawn) [Compound 9, 2-chloro-N-{(1-hydroxycyclopentyl)[3-(1H-pyrazol-4-yl)phenyl]methyl}-3-(trifluoromethyl)benzamide] |
